Type in all cases: functional, cell-based
The target of assay [1] is T1, Glucagon receptor (Homo sapiens, UniProt P47871). In words: Agonist activity at human GCG receptor expressed in HEK293 cells assessed as increase in cAMP level after 5 hrs by CRE driven luciferase reporter gene assay. On the technique in general: Changes in cAMP serve as a functional read-out for many G protein-coupled receptors.
The target in assay [2] is T2, Glucagon-like peptide 1 receptor (Homo sapiens, UniProt P43220). In words: Agonist activity at human GLP1 receptor expressed in HEK293 cells assessed as increase in cAMP level after 5 hrs by CRE driven luciferase reporter gene assay.
T2 sequence (P43220 whole entry): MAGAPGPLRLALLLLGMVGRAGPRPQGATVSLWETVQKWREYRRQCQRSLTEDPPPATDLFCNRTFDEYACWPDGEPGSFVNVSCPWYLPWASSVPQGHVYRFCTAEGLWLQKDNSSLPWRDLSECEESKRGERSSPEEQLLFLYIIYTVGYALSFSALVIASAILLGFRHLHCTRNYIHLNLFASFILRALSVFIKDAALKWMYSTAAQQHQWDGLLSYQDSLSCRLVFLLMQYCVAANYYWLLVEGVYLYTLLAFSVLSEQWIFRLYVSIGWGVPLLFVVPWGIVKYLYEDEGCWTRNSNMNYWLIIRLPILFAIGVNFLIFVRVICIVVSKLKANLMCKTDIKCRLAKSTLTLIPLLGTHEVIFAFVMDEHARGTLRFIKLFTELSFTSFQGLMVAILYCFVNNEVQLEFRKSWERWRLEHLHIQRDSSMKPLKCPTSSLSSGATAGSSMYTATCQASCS
For assay [3], the target named is T3, Gastric inhibitory polypeptide receptor (Homo sapiens) (UniProt P48546).
T3 sequence (whole entry): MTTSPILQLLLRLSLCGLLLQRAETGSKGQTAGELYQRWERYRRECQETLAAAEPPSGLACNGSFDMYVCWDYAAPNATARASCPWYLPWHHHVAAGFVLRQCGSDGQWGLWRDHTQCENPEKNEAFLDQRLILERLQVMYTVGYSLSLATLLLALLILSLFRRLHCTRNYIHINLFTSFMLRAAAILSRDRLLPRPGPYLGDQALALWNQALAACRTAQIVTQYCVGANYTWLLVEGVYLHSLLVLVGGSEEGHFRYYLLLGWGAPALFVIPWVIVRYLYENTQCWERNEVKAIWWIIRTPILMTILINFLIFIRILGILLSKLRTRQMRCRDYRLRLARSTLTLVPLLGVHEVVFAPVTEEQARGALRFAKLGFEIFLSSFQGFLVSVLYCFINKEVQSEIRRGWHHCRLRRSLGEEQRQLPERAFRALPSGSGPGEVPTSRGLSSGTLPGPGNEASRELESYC
In words: Agonist activity at human GIP receptor expressed in HEK293 cells assessed as increase in cAMP level after 5 hrs by CRE driven luciferase reporter gene assay relative to GIP. The arrangement: concentration or dose not given beside the values.

For assay [4], the target named is T2, Glucagon-like peptide 1 receptor. Nature of the assay: Agonist activity at human GLP1 receptor expressed in HEK293 cells assessed as increase in cAMP level after 5 hrs by CRE driven luciferase reporter gene assay relative to GLP1. Further details: concentration or dose not given beside the values.
Assay [5] concerns the target T1, Glucagon receptor. Nature of the assay: Agonist activity at human GCG receptor expressed in HEK293 cells assessed as increase in cAMP level after 5 hrs by CRE driven luciferase reporter gene assay relative to glucagon.
Assay [6] concerns the target T4, Gastric inhibitory polypeptide receptor (Homo sapiens, UniProt P48546).
T4 sequence (P48546 whole entry): T3 sequence (whole entry)
In words: Agonist activity at human GIP receptor expressed in HEK293 cells assessed as increase in cAMP level after 5 hrs by CRE driven luciferase reporter gene assay.

Among the data in ChEMBL document CHEMBL4219047, “Optimization of peptide-based polyagonists for treatment of diabetes and obesity” (Bioorg Med Chem, 2018) are EC50 and Activity values, retold here.

As usually defined, the EC50 is the midpoint of the concentration-response curve.

Where a SMILES comes first, the peptide text is derived from it. Bridges are numbered along the chain shown (N, C = ends).

T1 sequence (P47871 whole entry): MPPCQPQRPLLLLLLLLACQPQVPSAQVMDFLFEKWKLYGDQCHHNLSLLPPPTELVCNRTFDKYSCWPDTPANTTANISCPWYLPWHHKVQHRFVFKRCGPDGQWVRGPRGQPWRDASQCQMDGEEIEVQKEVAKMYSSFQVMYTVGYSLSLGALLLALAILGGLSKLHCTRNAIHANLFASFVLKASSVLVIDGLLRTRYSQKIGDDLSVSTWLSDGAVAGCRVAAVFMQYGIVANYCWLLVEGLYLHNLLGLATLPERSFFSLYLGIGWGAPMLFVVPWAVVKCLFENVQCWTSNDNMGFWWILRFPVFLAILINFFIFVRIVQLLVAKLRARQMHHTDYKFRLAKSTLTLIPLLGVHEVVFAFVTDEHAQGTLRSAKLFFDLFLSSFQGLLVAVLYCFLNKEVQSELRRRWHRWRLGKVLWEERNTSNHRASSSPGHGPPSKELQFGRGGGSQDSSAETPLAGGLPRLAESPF

As for `CC[C@H](C)[C@H](NC(=O)[C@H](Cc1ccccc1)NC(=O)[C@H](CCC(=O)O)NC(=O)[C@@H]1CCCCNC(=O)CC[C@H](NC(=O)[C@H](CC(=O)O)NC(=O)[C@H](CC(C)C)NC(=O)[C@H](Cc2ccc(O)cc2)NC(=O)[C@H](CCCCN)NC(=O)[C@H](CO)NC(=O)[C@H](Cc2ccc(O)cc2)NC(=O)[C@H](CC(=O)O)NC(=O)[C@H](CO)NC(=O)[C@@H](NC(=O)[C@H](Cc2ccccc2)NC(=O)[C@@H](NC(=O)CNC(=O)[C@H](CCC(N)=O)NC(=O)[C@H](CO)NC(=O)[C@@H](N)Cc2cnc[nH]2)[C@@H](C)O)[C@@H](C)O)C(=O)N[C@@H]([C@@H](C)CC)C(=O)N[C@@H](Cc2cnc[nH]2)C(=O)N[C@@H](CCC(N)=O)C(=O)N1)C(=O)N[C@@H](C)C(=O)N[C@@H](Cc1c[nH]c2ccccc12)C(=O)N[C@@H](CC(C)C)C(=O)N[C@@H](CCSC)C(=O)N[C@@H](CC(N)=O)C(=O)N[C@H](C(N)=O)[C@@H](C)O`, the results for the EC50 in assay [1], in assay [2] and in assay [6] were 150 pM, 140 pM and 5530 pM, respectively. Also, the figures for the Activity in assay [3], in assay [4] and in assay [5] were 0%, 20% and 21%, respectively.

`CC[C@H](C)[C@H](NC(=O)[C@H](Cc1ccccc1)NC(=O)[C@H](CCC(=O)O)NC(=O)[C@@H]1CCCCNC(=O)CC[C@H](NC(=O)[C@H](CC(=O)O)NC(=O)[C@H](CC(C)C)NC(=O)[C@H](Cc2ccc(O)cc2)NC(=O)[C@H](CCCCN)NC(=O)[C@H](CO)NC(=O)[C@H](Cc2ccc(O)cc2)NC(=O)[C@H](CC(=O)O)NC(=O)[C@H](CO)NC(=O)[C@@H](NC(=O)[C@H](Cc2ccccc2)NC(=O)[C@@H](NC(=O)CNC(=O)[C@H](CCC(N)=O)NC(=O)[C@H](CO)NC(=O)[C@@H](N)Cc2cnc[nH]2)[C@@H](C)O)[C@@H](C)O)C(=O)N[C@@H](CCC(N)=O)C(=O)N[C@@H](C)C(=O)N[C@@H](C)C(=O)N1)C(=O)N[C@@H](C)C(=O)N[C@@H](Cc1c[nH]c2ccccc12)C(=O)N[C@@H](CC(C)C)C(=O)N[C@@H](CCSC)C(=O)N[C@@H](CC(N)=O)C(=O)N[C@H](C(N)=O)[C@@H](C)O` (H-HSQGTFTSDYSKYLDEQAAKEFIAWLMNT-NH2; lactam 16-20): the EC50 in assay [1] came to 30 pM; in assay [2], 20 pM; in assay [6], 6260 pM. The Activity in assay [3] was 0%; in assay [4], 126%; in assay [5], 104%.

As for `CC[C@H](C)[C@H](NC(=O)[C@H](Cc1ccccc1)NC(=O)[C@H](CCC(=O)O)NC(=O)[C@H](CCCCN)NC(=O)[C@H](C)NC(=O)[C@H](C)NC(=O)[C@H](CCC(N)=O)NC(=O)[C@H](CCC(=O)O)NC(=O)[C@H](CC(=O)O)NC(=O)[C@H](CC(C)C)NC(=O)[C@H](Cc1ccc(O)cc1)NC(=O)[C@H](CCCCN)NC(=O)[C@H](CO)NC(=O)[C@H](Cc1ccc(O)cc1)NC(=O)[C@H](CC(=O)O)NC(=O)[C@H](CO)NC(=O)[C@@H](NC(=O)[C@H](Cc1ccccc1)NC(=O)[C@@H](NC(=O)CNC(=O)[C@H](CCC(=O)O)NC(=O)[C@H](CO)NC(=O)[C@@H](N)Cc1cnc[nH]1)[C@@H](C)O)[C@@H](C)O)C(=O)N[C@@H](C)C(=O)N[C@@H](Cc1c[nH]c2ccccc12)C(=O)N[C@@H](CC(C)C)C(=O)N[C@@H](CCSC)C(=O)N[C@@H](CC(N)=O)C(=O)N[C@H](C(N)=O)[C@@H](C)O` (H-HSEGTFTSDYSKYLDEQAAKEFIAWLMNT-NH2), the EC50 was determined as 5220 pM in assay [1], 30 pM in assay [2] and 867 pM in assay [6]. Moreover, the values for the Activity in assay [3], in assay [4] and in assay [5] were 2%, 93% and 1%, respectively.

Take `CCCCCCCCCCCCCCCC(=O)N[C@@H](CCC(=O)NCCCC[C@H](NC(=O)[C@H](CC(=O)O)NC(=O)[C@H](CO)NC(=O)[C@@H](NC(=O)[C@H](Cc1ccccc1)NC(=O)[C@@H](NC(=O)CNC(=O)[C@H](CCC(N)=O)NC(=O)CNC(=O)[C@@H](N)Cc1cnc[nH]1)[C@@H](C)O)[C@@H](C)O)C(=O)N[C@@H](CO)C(=O)N[C@@H](CCCCN)C(=O)N[C@@H](Cc1ccc(O)cc1)C(=O)N[C@@H](CC(C)C)C(=O)N[C@@H](CC(=O)O)C(=O)N[C@@H](CCC(=O)O)C(=O)N[C@@H](CCCNC(=N)N)C(=O)N[C@@H](C)C(=O)N[C@@H](C)C(=O)N[C@@H](CCC(N)=O)C(=O)N[C@@H](CC(=O)O)C(=O)N[C@@H](Cc1ccccc1)C(=O)N[C@H](C(=O)N[C@@H](CCC(N)=O)C(=O)N[C@@H](Cc1c[nH]c2ccccc12)C(=O)N[C@@H](CC(C)C)C(=O)N[C@@H](CC(C)C)C(=O)N[C@@H](CC(=O)O)C(=O)N[C@H](C(N)=O)[C@@H](C)O)C(C)C)C(=O)O`: the EC50 is 5 pM in assay [1], 93 pM in assay [2] and 1100 pM in assay [6]. Also, the figures for the Activity in assay [3], in assay [4] and in assay [5] were 2%, 30% and 640%, respectively.

With `CCCCCCCCCCCCCCCC(=O)N[C@@H](CCC(=O)NCCCC[C@H](NC(=O)[C@H](CC(=O)O)NC(=O)[C@H](CO)NC(=O)[C@@H](NC(=O)[C@H](Cc1ccccc1)NC(=O)[C@@H](NC(=O)CNC(=O)[C@H](CCC(N)=O)NC(=O)C(C)(C)NC(=O)[C@@H](N)Cc1cnc[nH]1)[C@@H](C)O)[C@@H](C)O)C(=O)N[C@@H](CO)C(=O)N[C@@H](CCCCN)C(=O)N[C@@H](Cc1ccc(O)cc1)C(=O)N[C@@H](CC(C)C)C(=O)N[C@@H](CC(=O)O)C(=O)NC(C)(C)C(=O)N[C@@H](CCCNC(=N)N)C(=O)N[C@@H](C)C(=O)N[C@@H](C)C(=O)N[C@@H](CCC(N)=O)C(=O)N[C@@H](CC(=O)O)C(=O)N[C@@H](Cc1ccccc1)C(=O)N[C@H](C(=O)N[C@@H](CCC(N)=O)C(=O)N[C@@H](Cc1c[nH]c2ccccc12)C(=O)N[C@@H](CC(C)C)C(=O)N[C@@H](CCSC)C(=O)N[C@@H](CC(=O)O)C(=O)N[C@H](C(N)=O)[C@@H](C)O)C(C)C)C(=O)O`, the EC50 came out at 28 pM in assay [1], 15 pM in assay [2] and 2190 pM in assay [6]. Besides, the Activity in assay [3] was 1%; in assay [4], 187%; in assay [5], 114%.

`CC[C@H](C)[C@H](NC(=O)[C@H](Cc1ccccc1)NC(=O)[C@H](CCC(=O)O)NC(=O)[C@H](CCCCN)NC(=O)[C@H](C)NC(=O)[C@H](C)NC(=O)[C@H](CCC(N)=O)NC(=O)[C@H](CCC(=O)O)NC(=O)[C@H](CC(=O)O)NC(=O)[C@H](CC(C)C)NC(=O)[C@H](Cc1ccc(O)cc1)NC(=O)[C@H](CCCCN)NC(=O)[C@H](CO)NC(=O)[C@H](Cc1ccc(O)cc1)NC(=O)[C@H](CC(=O)O)NC(=O)[C@H](CO)NC(=O)[C@@H](NC(=O)[C@H](Cc1ccccc1)NC(=O)[C@@H](NC(=O)CNC(=O)[C@H](CCC(N)=O)NC(=O)[C@H](CO)NC(=O)[C@@H](N)Cc1cnc[nH]1)[C@@H](C)O)[C@@H](C)O)C(=O)N[C@@H](C)C(=O)N[C@@H](Cc1c[nH]c2ccccc12)C(=O)N[C@@H](CC(C)C)C(=O)N[C@@H](CCSC)C(=O)N[C@@H](CC(N)=O)C(=O)N[C@H](C(N)=O)[C@@H](C)O` (H-HSQGTFTSDYSKYLDEQAAKEFIAWLMNT-NH2): the EC50 in assay [1] came to 31 pM; in assay [2], 22 pM; in assay [6] it was 6260 pM. Moreover, the Activity was found to be 0% in assay [3], 127% in assay [4] and 103% in assay [5].

Consider `CCCCCCCCCCCCCCCC(=O)N[C@@H](CCC(=O)NCCCC[C@H](NC(=O)[C@H](CC(=O)O)NC(=O)[C@H](CO)NC(=O)[C@@H](NC(=O)[C@H](Cc1ccccc1)NC(=O)[C@@H](NC(=O)CNC(=O)[C@H](CCC(N)=O)NC(=O)CN(C)C(=O)[C@@H](N)Cc1cnc[nH]1)[C@@H](C)O)[C@@H](C)O)C(=O)N[C@@H](CO)C(=O)N[C@@H](CCCCN)C(=O)N[C@@H](Cc1ccc(O)cc1)C(=O)N[C@@H](CC(C)C)C(=O)N[C@@H](CC(=O)O)C(=O)N[C@@H](CCC(=O)O)C(=O)N[C@@H](CCCNC(=N)N)C(=O)N[C@@H](C)C(=O)N[C@@H](C)C(=O)N[C@@H](CCC(N)=O)C(=O)N[C@@H](CC(=O)O)C(=O)N[C@@H](Cc1ccccc1)C(=O)N[C@H](C(=O)N[C@@H](CCC(N)=O)C(=O)N[C@@H](Cc1c[nH]c2ccccc12)C(=O)N[C@@H](CC(C)C)C(=O)N[C@@H](CC(C)C)C(=O)N[C@@H](CC(=O)O)C(=O)N[C@H](C(N)=O)[C@@H](C)O)C(C)C)C(=O)O`, for which the EC50 in assay [1] was determined as 16 pM; in assay [2] it was 115 pM; in assay [6], 5830 pM. Also, the Activity in assay [3] was 0%; in assay [4], 24%; in assay [5], 200%.
